This note sets out measurements from article PMC6829886, “Inhibition of Non-Small Cell Lung Cancer Cells by Oxy210, an Oxysterol-Derivative that Antagonizes TGFβ and Hedgehog Signaling” (Cells, 2019).

SMILES strings stand for the structures.

The nature of data set [1]: Dose escalation study with repeated once daily oral dosing for 7 days in mice. Type of data set: in vivo. To be noted: once daily oral 50, 200 and 400 mg/kg for 7 days. As for the experimental part:
In an initial assessment of drug-like properties of Oxy210, we performed a pharmacokinetic (PK) study in mice. Oxy210, formulated in 3% DMSO + 7% Ethanol + 5% PEG400 + 85% corn oil, was administered to balb/c mice by oral gavage as a single dose of 50 mg/kg. Plasma samples were taken at 10 min, 30 min, 1 h, 2 h, 4 h, and 8h, followed by LC/MS analysis. […] Additional PK studies in mice were performed with Oxy210 in a dose escalation study with repeated once daily oral dosing (50 mg/kg, 200 mg/kg and 400 mg/kg) for 7 days.

The subject of data set [2] is A549 cells. Put plainly: TGFβ-induced drug resistance (carboplatin) assay, cell counting. It is filed as cell-based, human. To be noted: TGFβ1 ± Oxy210 (5 μM) 3 days, then 20 μM CP 4 days. The method, then:
A549 and H2030 cells cultured in RPMI 1640 containing 5% FBS in 12 well-plates at 20% confluence were treated with Oxy210 for 6 days and then trypsinized, spun down and resuspended in fresh medium. For the Carboplatin (CP) and Oxy210 co-treatment experiments, A549 cells cultured in RPMI 1640 containing 2% FBS in 12 well-plates at 20% confluence were treated with CP at different concentrations in the presence or absence of Oxy210 for 6 days. For the TGFβ-induced drug resistance assay, A549 cells cultured in RPMI 1640 containing 2% FBS in 12 well-plates at 10% confluence were pre-treated with TGFβ1 alone or together with Oxy210 for 3 days, and then treated with 20 μM CP for 4 days. An aliquot of cell suspension was applied to a hemocytometer and the cells were then counted under a light microscope.
Figure 10 Effect of Oxy210 on TGFβ-induced resistance to carboplatin. A549 cells were treated with the agents as indicated (in front of --) in RPMI 1640 containing 2% FBS for 3 days, and then treated with the agents as indicated (after --) for 4 days. The cells were then trypsinized and counted. Data from a representative experiment are reported as the mean of triplicate determinations ± SD (## p < 0.01 vs. Control--Control; ++ p < 0.01 vs. Control--CP; ** p < 0.01 vs. TGFβ--CP).

Data set [3] concerns Gli responsive luciferase reporter (endogenous Gli). Put plainly: Gli responsive luciferase reporter in Sufu-/- cells. Type of data set: cell-based, mouse. The note with it: 72 hrs. The method, then:
NIH3T3-E1 cells cultured in 24 well-plates at 90% confluence were transiently transfected with 0.1 μg of Smad response-element reporter (SBE-Luciferase) plasmid (Qiagen), or with 0.1 μg of Gli response-element reporter (pGL3b-8xGli-Luciferase) plasmid, and 10 ng of pSV40-Renilla-Luciferase plasmid (Promega, Madison, WI, USA) with or without co-transfection with 10ng of Gli1 overexpression vector, pSRα-Gli1 using a Lipofectamine LTX Plus transfection reagent, as previously described. Sufu-/- cells cultured in 24 well-plates at 90% confluence were transiently transfected with 0.1μg of pGL3b-8xGli-Luciferase plasmid, and 10 ng of pSV40-Renilla-Luciferase plasmid. 6 hrs after transfection, cells were treated with test agents for 72 h. […] Then the firefly and Renilla luciferase activities were measured using a dual luciferase kit (Promega) and a GloMax-96 Microplate Luminometer (Promega) or a plate reader-SpectraMax iD3 (Molecular Devices, San Jose, CA, USA). […]
Figure 5 Oxy210 acts downstream of Smo. […] After 72 h, RNA was extracted and analyzed by Q-RT-PCR for the expression of Hh target genes Gli1 and Hip, normalized to Oaz1 expression. […] Luciferase activity was measured and normalized to the Renilla luciferase activity. […]

Regarding `C[C@]12CC[C@H]3[C@@H](CC=C4C[C@@H](O)CC[C@@]43C)[C@@H]1CC[C@@H]2[C@](C)(O)CCc1cccnc1` [Oxy210, (3S,8S,9S,10R,13S,14S,17S)-17-((R)-2-hydroxy-4-(pyridin-3-yl)butan-2-yl)-10,13-dimethyl-2,3,4,7,8,9,10,11,12,13,14,15,16,17-tetradecahydro-1H-cyclopenta[a]phenanthren-3-ol], in data set [1], the PK linearity result was “linear PK parameters and exposure”; the tolerability entry is “well tolerated and apparently safe”. In data set [2], the “sensitivity to CP after TGFβ1 pre-treatment (TGFβ-induced CP resistance)” value was “fully restored CP drug sensitivity”. For the same molecule, in data set [3], the “activity of Gli responsive luciferase reporter” value is “significantly inhibited”.
